For assay [1], the system named is Pseudomonas aeruginosa ATCC27853. Description: Broth dilution MIC/MBC against Pseudomonas aeruginosa. The assay is classed as cell-based. To be noted: P. aeruginosa, 24 h, 37° C. The protocol: (§1) Bacterial strains of Pseudomonas aeruginosa ATCC27853 (gram-negative) and Staphylococcus aureus ATCC25923 (gram-positive) were subjected to antibacterial studies. The bacteria were sub-cultured and maintained on Mueller Hinton Agar (MHA). A stock solution of the nanomaterial (8 mg/ml) was sonicated for 10 minutes in Mueller Hinton Broth (MHB) to obtain a homogenized solution for an antibacterial assay. Inoculum was prepared by adjusting the cell number to 1.5×10^8 colony forming unit per milliliter (CFU per ml) by using freshly grown strains, grown overnight at 37° C. […] About 100 μL of adjusted inoculum was inoculated into each tube and were further incubated for 24 h (at 37° C.) with agitation of 120 rotations per minute (rpm). A control tube of bacteria, also referred as control, had no nanomaterial. 10 μL extracted from the tubes were put on prepared MHA plates and further incubated at the same conditions. After the completion of incubation duration, the MHA plates were recorded for MIC and MBC values. MIC was taken as the lowest concentration of nanomaterial that inhibited 90% of the bacterial growth. However, MBC was recorded as the lowest concentration that killed the bacterial cells or had CFU less than three. […]
A general note: Broth dilution looks for growth in wells or tubes with falling amounts of substance.

In assay [2] the test system is Staphylococcus aureus ATCC25923. Description: Broth dilution MIC/MBC against Staphylococcus aureus. The assay is classed as cell-based. Conditions: S. aureus, 24 h, 37° C. The protocol:
as §1

The subject of assay [3] is human cervical cancer (HeLa) cells. Description: MTT cell viability assay on HeLa cells. To be noted: for effect on HeLa cell viability, growth and proliferation (in words): 48 hours, 5.0 to 50 μg/ml. The assay is classed as cell-based. As for the experimental part: (§2) Two cancer cell lines, namely, HCT-116 and HeLa were considered to study the impact of samples (medicinal nanocomposite) on viability and proliferation of such cell lines. A non-cancer cell line, embryonic kidney cells (HEK-293), was considered as a control cell line. HCT-116, HeLa and HEK-293 are collectively referred to as ‘the cells’ or individually as ‘the cell’ unless otherwise specified. The cells were cultured and maintained in the Dulbecco's Modified Eagle Media (DMEM), L-glutamine (5%), penicillin (1%), streptomycin (1%), Fetal bovine serum (FBS) (10%), and selenium chloride (1%). The cells were grown in 96 well plates in a 5% CO2 incubator (Thermo Fisher Scientific, Inc., Waltham, MA, USA) at 37° C., and 75-80% confluence cells and the cells processed for further assay.
A MTT assay is a colorimetric assay for measuring cell metabolic activity. The MTT assay is based on the ability of nicotinamide adenine dinucleotide phosphate (NADPH)-dependent cellular oxidoreductase enzymes to reduce the tetrazolium dye MTT to insoluble formazan, which has a purple colour. […] In control group, MSS, 1 wt. % Ag/MSS, 2 wt. % Ag/MSS, 4 wt. % Ag/MSS, 6 wt. % Ag/MSS, Ag-silicalite, and CP were […] and after 48 hours, the cells were incubated in MTT (Sigma-Aldrich, St. Louis, MO, USA) for 4 hours.
In control and nano formulation treated cells, MTT (5 mg/ml) was added, and the cells were further incubated in a CO2 incubator for 4 hours. Further, the cell culture media was replaced with dimethyl sulfoxide (DMSO) (1%), and the 96-well plate was further examined under an enzyme-linked immunoassay (ELISA) plate reader (Biotek Instruments, USA) at a wavelength of 570 nm. The percentage of cell viability was calculated for a statistical analysis. ANOVA were used to analyze the data. All the analysis was run on GraphPad Prism software. P value less than 0.05 was taken as significant difference in results.
For orientation: Formazan colour is commonly taken as a measure of viable cells.

Assay [4] has as its system human colorectal carcinoma (HCT-116) cells. As to the kind of experiment: MTT cell viability assay on HCT-116 cells. The assay is classed as cell-based. The protocol: as §2
A MTT assay is a colorimetric assay for measuring cell metabolic activity. […]
In control and nano formulation treated cells, MTT (5 mg/ml) was added, and the cells were further incubated in a CO2 incubator for 4 hours. Further, the cell culture media was replaced with dimethyl sulfoxide (DMSO) (1%), and the 96-well plate was further examined under an enzyme-linked immunoassay (ELISA) plate reader (Biotek Instruments, USA) at a wavelength of 570 nm. The percentage of cell viability was calculated for a statistical analysis. […]

The subject of the next assay is HCT-116 cells. Description: Apoptotic DAPI staining assay on HCT-116 cells. The assay is classed as cell-based, human. To be noted: HCT-116, 25 μg/ml, 48-hour treatment. An excerpt:
DAPI is a fluorescent dye used to distinguish between live and dead cells. In live cells, the dye pass through a membrane less effectively. Therefore, the DAPI staining assay is an effective marker to identify the cell viability based on the cell structural changes. The morphology changes of cancer nuclear structure due to treatments of MSS, 1 wt. % Ag/MSS, 2 wt. % Ag/MSS, 4 wt. % Ag/MSS, 6 wt. % Ag/MSS, Ag-silicalite, and CP were examined by the DAPI staining assay. Cells were divided into two groups such as a control group and an experimental group. The control group was without nano formulation and CP treatments. In the experimental group, 1 wt. % Ag/MSS, 2 wt. % Ag/MSS, 4 wt. % Ag/MSS, 6 wt. % Ag/MSS, Ag-silicalite, and CP (25 μg/ml) were added.
Post 48-hour treatment, the control and experimental groups were exposed to ice-cold (4%) paraformaldehyde and further with Triton X-100 in the PBS solution. The cells were stained with DAPI (1.0 μg/ml) for 5 minutes under a dark environment, and the cells were finally washed with the PBS solution and cover slipped. A deoxyribonucleic acid (DNA) staining was examined by using confocal scanning microscope (Zeiss, Germany). The data presented as mean (±) standard deviation (SD) obtained from triplicates and one-way ANOVA followed by Dennett's post hoc test with GraphPad Prism Software (GraphPad Software, USA) for final statistical analysis.

Regarding `O=[N+]([O-])[O-].[Ag+]` [AgNO3, Silver nitrate], the “antibacterial activity, MIC/MBC (in words)” value in assay [1] and in assay [2] was “showed effectiveness” in each case.
As for `N.N.[Cl][Pt][Cl]` [CP, cisplatin], the figures for the “effect on HeLa cell viability, growth and proliferation (in words)” value in assay [3] and in assay [3] (listed as cisplatin) were “dose-dependent inhibitory action” and “significant decrease”, respectively. The “inhibitory concentration (IC50)” value was determined as 13 µg/mL in assay [3] (HeLa cells, 48 hours treatment) and 13 µg/mL in assay [4] (HCT-116 cells, 48 hours treatment). The “effect on HCT-116 cell viability, growth and proliferation (in words)” value in assay [4] (48 hours, 5.0 to 50 μg/ml) is given as “dose-dependent inhibitory action”. Also, in the assay on HCT-116 cells, the “number of DAPI stained colon cancer cells versus control (in words)” value is “significant decrease in the number of colon cancer cells”.

Source of the values: patent US12102651B1, “Solvent-based method for making nanocomposite pharmaceutical material” (Imam Abdulrahman Bin Faisal University, priority 2022, dated 2024).
